We go through 26 compounds from US7928098B2, “Therapeutic and/or preventive agents for a sleep disorder” (Kyowa Hakko Kirin Co., Ltd., priority 2005, dated 2011).

For the compound `O=C(Nc1nc(-c2ccco2)c(C(=O)C2CCOCC2)s1)c1ccc2c(c1)OC(F)(F)O2` [Compound 403, 2,2-Difluoro-N-[4-(2-furyl)-5-(tetrahydropyran-4-ylcarbonyl)thiazol-2-yl]-1,3-benzodioxol-5-carboxamide], the melting point (commonly the temperature of the solid-liquid transition) was in the range of 124 to 129 °C.

The compound `O=C(Nc1nc(-c2ccco2)c(C(=O)C2CCOCC2)s1)c1ccnc(Cl)c1` [Compound 404, 2-Chloro-N-[4-(2-furyl)-5-(tetrahydropyran-4-ylcarbonyl)-thiazol-2-yl]pyridine-4-carboxamide] came in with a melting point of 185 to 186 °C.

Compound `Cc1cc(C(=O)Nc2nc(-c3ccco3)c(C(=O)C3CCOCC3)s2)ccn1` [Compound 405, N-[4-(2-Furyl)-5-(tetrahydropyran-4-ylcarbonyl)thiazol-2-yl]-2-methylpyridine-4-carboxamide] came in with a melting point of 169 to 173 °C.

Take `O=C(Nc1nc(-c2ccco2)c(C(=O)C2CCOCC2)s1)c1cccnc1` [Compound 406, N-[4-(2-Furyl)-5-(tetrahydropyran-4-ylcarbonyl)thiazol-2-yl]pyridine-3-carboxamide]: the melting point was in the range of 209 to 212 °C.

`O=C(Nc1nc(-c2ccco2)c(C(=O)C2CCOCC2)s1)c1ccc(N2CCOCC2)nc1` [Compound 408, N-[4-(2-Furyl)-5-(tetrahydropyran-4-ylcarbonyl)thiazol-2-yl]-2-morpholinopyridine-5-carboxamide]: the melting point fell in the range of 166 to 170 °C.

`O=C(Nc1nc(-c2ccco2)c(C(=O)C2CCOCC2)s1)c1ccc(C(F)(F)F)nc1` [Compound 410, N-[4-(2-Furyl)-5-(tetrahydropyran-4-ylcarbonyl)thiazol-2-yl]-2-(trifluoromethyl)pyridine-5-carboxamide] gave a melting point of 217 to 222 °C.

With `Cc1cncc(C(=O)Nc2nc(-c3ccco3)c(C(=O)C3CCOCC3)s2)c1` [Compound 411, N-[4-(2-Furyl)-5-(tetrahydropyran-4-ylcarbonyl)thiazol-2-yl]-5-methylpyridine-3-carboxamide], the melting point is 239 to 243 °C.

In turn, `O=C(Nc1nc(-c2ccco2)c(C(=O)C2CCOCC2)s1)c1ccccn1` [Compound 412, N-[4-(2-Furyl)-5-(tetrahydropyran-4-ylcarbonyl)thiazol-2-yl]pyridine-2-carboxamide] gave a melting point of 185 to 186 °C.

Compound `O=C(Nc1nc(-c2ccco2)c(C(=O)C2CCOCC2)s1)c1cnccn1` [Compound 414, N-[4-(2-Furyl)-5-(tetrahydropyran-4-ylcarbonyl)thiazol-2-yl]pyrazine-2-carboxamide] displayed a melting point of 200 to 205 °C.

Compound `Cc1cnc(C(=O)Nc2nc(-c3ccco3)c(C(=O)C3CCOCC3)s2)cn1` [Compound 415, N-[4-(2-Furyl)-5-(tetrahydropyran-4-ylcarbonyl)thiazol-2-yl]-5-methylpyrazine-2-carboxamide] had a melting point of 130 to 131 °C.

The compound `Cc1ccc(C(=O)Nc2nc(-c3ccco3)c(C(=O)C3CCOCC3)s2)o1` [Compound 417, N-[4-(2-Furyl)-5-(tetrahydropyran-4-ylcarbonyl)thiazol-2-yl]-5-methylfuran-2-carboxamide] showed a melting point of 209 to 212 °C.

Take `O=C(Nc1nc(-c2ccco2)c(C(=O)C2CCOCC2)s1)c1ccoc1` [Compound 421, N-[4-(2-Furyl)-5-(tetrahydropyran-4-ylcarbonyl)thiazol-2-yl]furan-3-carboxamide]: the melting point was in the range of 236 to 238 °C.

As for `O=C(Nc1nc(-c2ccco2)c(C(=O)C2CCOCC2)s1)c1cccs1` [Compound 422, N-[4-(2-Furyl)-5-(tetrahydropyran-4-ylcarbonyl)thiazol-2-yl]thiophene-2-carboxamide], the melting point lay within 231 to 232 °C.

Take `O=C(Nc1nc(-c2ccco2)c(C(=O)C2CCOCC2)s1)c1ccsc1` [Compound 423, N-[4-(2-Furyl)-5-(tetrahydropyran-4-ylcarbonyl)thiazol-2-yl]thiophene-3-carboxamide]: the melting point is 227 to 229 °C.

In turn, `Cn1cc(C(=O)Nc2nc(-c3ccco3)c(C(=O)C3CCOCC3)s2)cn1` [Compound 424, N-[4-(2-Furyl)-5-(tetrahydropyran-4-ylcarbonyl)thiazol-2-yl]-1-methylpyrazole-4-carboxamide] came in with a melting point of 243 to 247 °C.

On to `CCn1cc(C(=O)Nc2nc(-c3ccco3)c(C(=O)C3CCOCC3)s2)cn1` [Compound 425, 1-Ethyl-N-[4-(2-furyl)-5-(tetrahydropyran-4-ylcarbonyl)-thiazol-2-yl]pyrazole-4-carboxamide], for which the melting point was 170 to 174 °C.

`O=C(Nc1nc(-c2ccco2)c(C(=O)C2CCOCC2)s1)c1cnn(-c2ccccc2)c1` [Compound 426, N-[4-(2-Furyl)-5-(tetrahydropyran-4-ylcarbonyl)thiazol-2-yl]-1-phenylpyrazole-4-carboxamide] returned a melting point of 217 to 220 °C.

`O=C(c1sc(NC(=O)C2CCCO2)nc1-c1ccco1)C1CCOCC1` (centres unmarked) [Compound 428, N-[4-(2-Furyl)-5-(tetrahydropyran-4-ylcarbonyl)thiazol-2-yl]tetrahydrofuran-2-carboxamide] displayed a melting point of 115 to 117 °C.

Turning to `O=C(Nc1nc(-c2ccco2)c(C(=O)C2CCOCC2)s1)C1CCOC1` (centres unmarked) [Compound 429, N-[4-(2-Furyl)-5-(tetrahydropyran-4-ylcarbonyl)thiazol-2-yl]tetrahydrofuran-3-carboxamide], the melting point was in the range of 164 to 166 °C.

As for `O=C(CC1CCOCC1)Nc1nc(-c2ccco2)c(C(=O)C2CCOCC2)s1` [Compound 430, N-[4-(2-Furyl)-5-(tetrahydropyran-4-ylcarbonyl)thiazol-2-yl]-2-(tetrahydropyran-4-yl)acetamide], the melting point lay within 206 to 209 °C.

Turning to `O=C(Cc1ccccc1)Nc1nc(-c2ccco2)c(C(=O)C2CCOCC2)s1` [Compound 431, N-[4-(2-Furyl)-5-(tetrahydropyran-4-ylcarbonyl)thiazol-2-yl]-2-phenylacetamide], the melting point lay in the range of 140 to 142 °C.

The compound `O=C(CCc1ccccc1)Nc1nc(-c2ccco2)c(C(=O)C2CCOCC2)s1` [Compound 432, N-[4-(2-Furyl)-5-(tetrahydropyran-4-ylcarbonyl)thiazol-2-yl]-3-phenylpropanamide] yielded a melting point of 161 to 164 °C.

In the case of `O=C(C=Cc1ccccc1)Nc1nc(-c2ccco2)c(C(=O)C2CCOCC2)s1` [Compound 433, N-[4-(2-Furyl)-5-(tetrahydropyran-4-ylcarbonyl)thiazol-2-yl]-3-phenylacrylamide], the melting point was 253 to 256 °C.

The compound `O=C(COc1ccccc1)Nc1nc(-c2ccco2)c(C(=O)C2CCOCC2)s1` [Compound 434, N-[4-(2-Furyl)-5-(tetrahydropyran-4-ylcarbonyl)thiazol-2-yl]-2-phenoxyacetamide] came in with a melting point of 148 to 150 °C.

For the compound `COCC(=O)Nc1nc(-c2ccco2)c(C(=O)C2CCOCC2)s1` [Compound 435, N-[4-(2-Furyl)-5-(tetrahydropyran-4-ylcarbonyl)thiazol-2-yl]-2-methoxyacetamide], the melting point fell in the range of 148 to 149 °C.

In turn, `CCOCC(=O)Nc1nc(-c2ccco2)c(C(=O)C2CCOCC2)s1` [Compound 437, 2-Ethoxy-N-[4-(2-furyl)-5-(tetrahydropyran-4-ylcarbonyl)-thiazol-2-yl]acetamide] gave a melting point of 121 to 126 °C.
